Results from patent publication US9051304B2, “Carboxamide compounds and their use as calpain inhibitors V” (AbbVie Deutschland GmbH & Co. KG, priority 2009, dated 2015).

Tests used:
[1] = molecular target: T1, cathepsin B isolated from human liver (Homo sapiens, UniProt P07858); experiment: Cathepsin B enzyme inhibition, kinetic fluorescence assay; type: biochemical; settings: selectivity ratio vs calpain
T1 construct: cathepsin B—isolated from human liver; purchased Calbiochem 219362; host or cells: human liver (tissue isolate)
Method: (§1) I Enzyme Inhibition in vitro:
(§2) Testing for blockade of the corresponding enzymic activities was carried out by means of kinetic fluorescence assays (excitation 390 nm, emission 460 nm).
(§3) Apparent Ki values were calculated from the experimentally determined IC50 values by the Cheng-Prussoff relation assuming a reversible competitive enzyme inhibition.
0.25 nM cathepsin B—isolated from human liver (Calbiochem #219362), 100 μM Z-Phe-Arg-AMC (Bachem #I-1160) as substrate 50 mM MES, 2 mM EDTA, 0.05% Brij 35, 2.5 mM L-cysteine, pH 6.0, room temperature.

[2] = molecular target: T2, recombinant human cathepsin S (Homo sapiens, UniProt P25774); experiment: Cathepsin S enzyme inhibition, kinetic fluorescence assay; type: biochemical; settings: selectivity ratio vs calpain
T2 construct: purchased Calbiochem 219343; host or cells: E. coli
T2 sequence (P25774 115-331): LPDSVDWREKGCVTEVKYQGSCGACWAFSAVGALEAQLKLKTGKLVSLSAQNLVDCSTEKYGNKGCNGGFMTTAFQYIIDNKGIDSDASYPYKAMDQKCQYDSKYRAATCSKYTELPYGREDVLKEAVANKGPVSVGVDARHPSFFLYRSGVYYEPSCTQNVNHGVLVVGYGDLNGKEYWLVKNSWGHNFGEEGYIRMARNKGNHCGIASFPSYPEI
Method: as §1, §2, §3
0.5 nM recombinant human cathepsin S from E. coli (Calbiochem #219343), 20 μM Z-Val-Val-Arg-AMC (Bachem #I-1540) as substrate in 50 mM MES, 2 mM EDTA, 0.05% Brij 35, 2.5 mM L-cysteine, pH 6.0, room temperature.

[3] = molecular target: T3, cathepsin K activated from recombinant human procathepsin K (Homo sapiens, UniProt P43235); experiment: Cathepsin K enzyme inhibition, kinetic fluorescence assay; type: biochemical; settings: selectivity ratio vs calpain
T3 construct: purchased Calbiochem 342001; host or cells: E. coli
T3 sequence (P43235 115-329): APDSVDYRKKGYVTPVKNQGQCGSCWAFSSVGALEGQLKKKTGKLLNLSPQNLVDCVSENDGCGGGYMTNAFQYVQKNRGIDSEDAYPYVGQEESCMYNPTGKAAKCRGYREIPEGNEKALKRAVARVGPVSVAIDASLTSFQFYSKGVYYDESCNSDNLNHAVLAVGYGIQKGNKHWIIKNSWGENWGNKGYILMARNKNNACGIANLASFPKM
Method: as §1, §2, §3
3 nM cathepsin K—activated from recombinant human procathepsin K from E. coli (Calbiochem #342001), 10 μM Z-Gly-Pro-Arg-AMC (Biomol #P-142) as substrate in 50 mM MES, 2 mM EDTA, 0.05% Brij 35, 2.5 mM L-cysteine, pH 6.0, room temperature.

[4] = molecular target: T4, calpain-I isolated from human erythrocytes (Homo sapiens, UniProt P07384); experiment: Calpain I enzyme inhibition, kinetic fluorescence assay; type: biochemical; settings: apparent Ki from IC50 by Cheng-Prussoff; human erythrocyte calpain-I
T4 construct: calpain-I—isolated from human erythrocytes; purchased Calbiochem 208713; host or cells: human erythrocytes (tissue isolate)
T4 sequence (P07384 1-714): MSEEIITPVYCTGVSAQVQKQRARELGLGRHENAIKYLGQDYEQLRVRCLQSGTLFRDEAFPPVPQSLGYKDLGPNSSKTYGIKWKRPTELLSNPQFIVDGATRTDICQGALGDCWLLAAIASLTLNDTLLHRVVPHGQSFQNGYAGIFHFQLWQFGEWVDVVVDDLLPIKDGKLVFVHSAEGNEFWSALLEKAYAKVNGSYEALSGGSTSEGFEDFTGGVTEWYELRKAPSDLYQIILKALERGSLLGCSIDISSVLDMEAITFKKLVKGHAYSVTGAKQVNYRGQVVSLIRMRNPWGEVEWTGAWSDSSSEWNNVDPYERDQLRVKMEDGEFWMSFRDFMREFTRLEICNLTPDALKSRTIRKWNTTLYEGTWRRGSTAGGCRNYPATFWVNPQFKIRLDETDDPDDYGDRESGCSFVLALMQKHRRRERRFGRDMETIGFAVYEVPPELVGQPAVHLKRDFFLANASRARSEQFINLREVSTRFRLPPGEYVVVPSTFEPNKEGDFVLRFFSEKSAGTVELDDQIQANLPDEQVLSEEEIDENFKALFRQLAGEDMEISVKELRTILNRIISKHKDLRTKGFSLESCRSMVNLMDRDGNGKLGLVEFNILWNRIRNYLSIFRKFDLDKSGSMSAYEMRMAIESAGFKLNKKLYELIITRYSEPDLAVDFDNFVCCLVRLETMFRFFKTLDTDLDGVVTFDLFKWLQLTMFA
T4 sequence (P04632 1-268 partner): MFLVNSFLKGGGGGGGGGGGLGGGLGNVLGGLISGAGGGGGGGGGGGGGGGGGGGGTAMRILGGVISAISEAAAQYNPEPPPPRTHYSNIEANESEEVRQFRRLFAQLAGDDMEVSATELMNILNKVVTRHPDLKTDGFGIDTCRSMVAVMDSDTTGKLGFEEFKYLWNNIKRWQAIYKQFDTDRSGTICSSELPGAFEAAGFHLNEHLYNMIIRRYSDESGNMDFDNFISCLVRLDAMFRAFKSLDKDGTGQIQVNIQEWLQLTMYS
Method: as §1, §2, §3
20 nM calpain-I—isolated from human erythrocytes (Calbiochem #208713), 100 μM Suc-Leu-Tyr-AMC (Bachem #I-1355) as substrate in buffer with 62 mM imidazole, 0.3 mM CaCl2, 0.10% CHAPS, 0.05% BSA, 1 mM DTT at pH 7.3 and room temperature.

[5] = molecular target: T5, cathepsin L isolated from human liver (Homo sapiens, UniProt P07711); experiment: Cathepsin L enzyme inhibition, kinetic fluorescence assay; type: biochemical; settings: selectivity ratio vs calpain
T5 construct: cathepsin L—isolated from human liver; purchased Calbiochem 219402; host or cells: human liver (tissue isolate)
T5 sequence (P07711 114-333): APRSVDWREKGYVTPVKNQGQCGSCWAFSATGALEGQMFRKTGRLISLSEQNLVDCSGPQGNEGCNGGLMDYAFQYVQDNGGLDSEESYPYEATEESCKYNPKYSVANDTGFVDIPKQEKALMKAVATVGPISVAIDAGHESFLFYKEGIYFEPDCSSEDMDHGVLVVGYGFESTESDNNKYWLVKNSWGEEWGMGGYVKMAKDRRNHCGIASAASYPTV
Method: as §1, §2, §3
1 nM cathepsin L—isolated from human liver (Calbiochem #219402), 2 μM Z-Phe-Arg-AMC (Bachem #I-1160) as substrate in 50 mM MES, 2 mM EDTA, 0.05% Brij 35, 2.5 mM L-cysteine, pH 6.0, room temperature.

[6] = Cytosolic clearance in human liver cytosol; type: in vitro ADME; settings: 0.5 μM compound, 1 mg/ml human liver cytosol, 37° C., pH 7.5; read-out: human cytCL (cytosolic clearance)
Method: (§4) III Assay for Determining Cytosolic Clearance of Compounds of Formula I: […]
(§5) For comparison purposes data measured with human liver cytosol were contrasted with those obtained with cynomolgus monkey liver cytosol.
(§6) 0.5 μM of a compound to be tested was incubated with 1 mg/ml of human liver cytosol as well as monkey liver cytosol at 37° C. in 0.5 M of phosphate buffer at pH 7.5 while shaking (commercial sources: female cynomolgus liver cytosol from Tebu bio, human liver cytosol from BDgentest).
(§7) In each case aliquots of 65 μl were taken after 0, 5, 10 and 15 min and transferred into wells of a wellplate which were immediately filled with 130 μl of ethanol to stop the reaction. The samples were kept frozen until analysis on a LC/MS/MS system (Applied Biosystems SCIEX 4000).
(§8) Read out parameters were the loss of parent compounds, from which the half life periods (T1/2) were calculated from.
(§9) To assess the stability of the compounds tested the clearance ranges were adjusted to the hepatic plasma flow of the different species according to the following scheme:
(§10) stable=from 0 to about ⅓ of the hepatic plasma flow;
(§11) moderately stable=from about ⅓ to about ⅔ of the hepatic plasma flow;
(§12) instable=more than ⅔ of the hepatic plasma flow.
(§13) Based on this adjustment the following qualifiers were assigned to evaluate the cytosolic stabilities of the compounds tested: […]

[7] = Cytosolic clearance in cynomolgus monkey liver cytosol; type: in vitro ADME; settings: female; 0.5 μM compound, 1 mg/ml cynomolgus monkey liver cytosol, 37° C., pH 7.5; read-out: cyno cytCL (cytosolic clearance)
Method: as §4, §5, §6, §7, §8, §9, §10, §11, §12, §13

Row | Structure (SMILES) | Sel cat. B (Ki(cathepsin B)/Ki(calpain) ratio) [1] | Sel cat. S (Ki(cathepsin S)/Ki(calpain) ratio) [2] | Sel cat. K (Ki(cathepsin K)/Ki(calpain) ratio) [3] | Ki [4] | Sel cat. L (Ki(cathepsin L)/Ki(calpain) ratio) [5] | Calpain activity (Ki(calpain)) [4] | cytosolic intrinsic clearance at 0.5 μM [6] | cytosolic intrinsic clearance at 0.5 μM [7]
1 | CONC(=O)C(=O)C(Cc1ccccc1)NC(=O)c1cccnc1-n1ccc(-c2ccc(N3CCOCC3)cc2)n1 (centres unmarked) [Example 13, N-[4-(Methoxyamino)-3,4-dioxo-1-phenyl-2-butanyl]-2-{3-[4-(4-morpholinyl)phenyl]-1H-pyrazol-1-yl}nicotinamide] | ∘ | ++ (++ means 10<Ki(cathepsin S)/Ki(calpain)≦50) | + (+ means 2≦Ki(cathepsin K)/Ki(calpain)≦4) | 300 to 600 nM | ++ (++ means 10<Ki(cathepsin L)/Ki(calpain)≦50) | – | – | –
2 | CONC(=O)C(=O)C(Cc1ccccc1)NC(=O)c1cccnc1-n1cc(Cl)c(-c2ccccc2)n1 (centres unmarked) [Example 10, 2-(4-Chloro-3-phenyl-1H-pyrazol-1-yl)-N-(4-(methoxyamino)-3,4-dioxo-1-phenylbutan-2-yl)nicotinamide] | ∘ | ++ (++ means 10<Ki(cathepsin S)/Ki(calpain)≦50) | + (+ means 2≦Ki(cathepsin K)/Ki(calpain)≦4) | 300 to 600 nM | ++ (++ means 10<Ki(cathepsin L)/Ki(calpain)≦50) | – | – | –
3 | O=C(NOCC1CC1)C(=O)C(Cc1ccccc1)NC(=O)[C@H]1CCC(=O)N1Cc1ccccc1 (stereo partly drawn) [Example 31, (2R)-1-benzyl-N-(4-(cyclopropylmethoxyamino)-3,4-dioxo-1-phenylbutan-2-yl)-5-oxopyrrolidine-2-carboxamide] | + (+ means 2≦Ki(cathepsin B)/Ki(calpain)≦4) | ++ (++ means 10<Ki(cathepsin S)/Ki(calpain)≦50) | ∘ | < 200 nM | ∘ | – | – | –
4 | CCONC(=O)C(=O)C(Cc1ccccc1)NC(=O)[C@H]1CCC(=O)N1Cc1ccccc1 (stereo partly drawn) [Example 29, (2R)-1-benzyl-N-(4-(ethoxyamino)-3,4-dioxo-1-phenylbutan-2-yl)-5-oxopyrrolidine-2-carboxamide] | +++ (+++ means a Ki(cathepsin B)/Ki(calpain) ratio of >10) | ++ (++ means 10<Ki(cathepsin S)/Ki(calpain)≦50) | ++ (++ means 4<Ki(cathepsin K)/Ki(calpain)≦10) | – | ++ (++ means 10<Ki(cathepsin L)/Ki(calpain)≦50) | ∘ | – | –
5 | CC(C)(C)ONC(=O)C(=O)C(Cc1ccccc1)NC(=O)c1cccnc1-n1ccc(-c2ccccc2)n1 (centres unmarked) [Example 16, N-(4-{[(2-Methyl-2-propanyl)oxy]amino}-3,4-dioxo-1-phenyl-2-butanyl)-2-(3-phenyl-1H-pyrazol-1-yl)nicotinamide] | +++ (+++ means a Ki(cathepsin B)/Ki(calpain) ratio of >10) | ++ (++ means 10<Ki(cathepsin S)/Ki(calpain)≦50) | ∘ | 300 to 600 nM | + (+ means 5≦Ki(cathepsin L)/Ki(calpain)≦10) | – | – | –
6 | CCONC(=O)C(=O)C(Cc1ccccc1)NC(=O)c1cccnc1-n1ccc(-c2ccccc2)n1 (centres unmarked) [Example 7, N-(4-(Ethoxyamino)-3,4-dioxo-1-phenylbutan-2-yl)-2-(3-phenyl-1H-pyrazol-1-yl)nicotinamide] | ++ (++ means 4<Ki(cathepsin B)/Ki(calpain)≦10) | +++ (+++ means a Ki(cathepsin S)/Ki(calpain) ratio of >50) | + (+ means 2≦Ki(cathepsin K)/Ki(calpain)≦4) | < 200 nM | ++ (++ means 10<Ki(cathepsin L)/Ki(calpain)≦50) | – | < 14 µL/min/mg | < 18 µL/min/mg
